Test results taken from ChEMBL document CHEMBL3098120, “Synthesis and analysis of activity of a potential anti-melanoma prodrug with a hydrazine linker” (Eur J Med Chem, 2014).
The source made the active and inactive calls. The rule behind the calls is not given here.

What was measured:
B16-F10 [1] = assay: Cytotoxicity against mouse B16F10 cells at 250 uM after 24 to 48 hrs by MTT assay; assay type: functional, cell-based
[2] = Prodrug activation mediated by mushroom tyrosinase assessed as N-{4-[bis-(2-chloroethyl)amino]benzoyl}-N''-(4-hydroxybenzylidene)hydrazine formation up to 120 mins by TLC, HPLC or MS analysis; conditions: agaricus bisporus, 2 h
NIH3T3 = assay: Cytotoxicity against mouse NIH/3T3 cells at 250 uM after 24 to 48 hrs by MTT assay; assay type: cell-based; conditions: nih3t3, 250 µM
[3] = Prodrug activation mediated by mushroom tyrosinase assessed as 5,6-dihydroxy-1H-indazol-1-yl 4-[bis-(2-chloroethyl)amino]benzoate formation up to 120 mins by UV-Vis spectroscopy; conditions: agaricus bisporus, 2 h
[4] = Cytotoxicity against mouse HECa10 cells at 250 uM after 24 to 48 hrs by MTT assay; assay type: cell-based
[5] = Prodrug activation mediated by mushroom tyrosinase assessed as 4-[bis-(2-chloroethyl) amino]benzoic cid formation up to 120 mins by TLC, HPLC or MS analysis; conditions: agaricus bisporus, 2 h
B16-F10 [6] = assay: Antitumor activity against mouse B16F10 cells […] in C57BL/6 mouse assessed as reduction of tumor size at 100 ug administered as intratumorally for 3 days; assay type: functional, cell-based

Structure (SMILES) | Activity (B16-F10 [1]) | Drug metabolism [2] | Activity (NIH3T3) | Drug metabolism [3] | Activity [4] | Drug metabolism [5] | Activity (B16-F10 [6])
O=C(NNCc1ccc(O)cc1)c1ccc(N(CCCl)CCCl)cc1 | Active | Active | Toxic | Active | Toxic | Not Active | Active
N[C@@H](Cc1ccc(N(CCCl)CCCl)cc1)C(=O)O |  |  |  |  |  |  | Active
